{
  "source": "patent EP1070454A1",
  "about": "“TRANSGENIC ANIMAL SHOWING VASCULAR TISSUE-SPECIFIC EXPRESSION OF ANGIOTENSIN II2 RECEPTOR” (SUNTORY LIMITED, priority 1999, dated 2000)",
  "key": {"kininogenase": {"system": "kininogenase", "assay": "Angiotensin II-induced kininogenase activity in isolated aorta (radioimmunoassay)", "format": "biochemical, mice", "conditions": "for inhibition of the increase of kininogenase activity: increase caused by AngII + CV11974; for Angiotensin II-induced kininogenase activity in isolated aorta: mean ± SE", "protocol": "Then, the activity of kininogenase, which is an enzyme for producing bradykinin from kinonogen, was compared between transgenic and wild-type mice in isolated aortic vessels. After abdominal incision of each mouse, the abdominal aorta was isolated and the aortic extract homogenized in the presence of 0.1 M phosphate buffer (0.2% bacitracin, 3 mM O-phenanthroline, 30 mM EDTA-Na2) containing a protease inhibitor was dried in nitrogen under 90% ethanol. The dried extract was solubilized in a buffer containing an angiotensin-converting enzyme inhibitor and tested for kininogenase activity by radioimmunoassay of […] produced from bovine kininogen as a substrate (Table 4)."}, "[1]": {"system": "cGMP production in isolated aorta", "assay": "Angiotensin II-induced cGMP production in isolated aorta (radioimmunoassay)", "format": "cell-based, mice", "conditions": "for inhibition of the increase of cGMP production: increase caused by AngII + CV11974; for Angiotensin II-induced cGMP production in isolated aorta: mean ± SE", "from_the_text": "Then, AngII-induced cGMP production in isolated aortic vessels was compared between transgenic and wild-type mice in order to examine whether or not vasodilator action of AngII is mediated by cGMP. After abdominal incision of each mouse, the abdominal aorta was isolated and the aortic extract homogenized by sonication in ethanol was dried in nitrogen and treated with an acetylation reagent (acetic anhydride : triethylamine = 1:2) and then assayed for cGMP level by radioimmunoassay using an anti cGMP antibody (Table 3). […]"}, "isolated aorta": {"system": "isolated aorta", "assay": "Angiotensin II-induced contraction of isolated aorta (rings in myograph)", "format": "cell-based, mice", "conditions": "for Angiotensin II-induced vasoconstriction: isolated abdominal aorta rings, mean ± SE", "protocol": "AngII-induced contraction of isolated aortic vessels was compared between transgenic and wild-type mice. After abdominal incision of each mouse, the abdominal aorta was isolated and cut into rings, which were then suspended under a constant tension of 0.8 g in a myograph. Change of vascular tension after addition of AngII was recorded under perfusion with Tyrode's solution (137 mmol/L NaCl, 2.7 mmol/L KCl, 1.8 mmol/L CaCl2, 1.1 mmol/L MgCl2, 0.42 mmol/L NaH2PO4, 12 mmol/L NaHCO3 and 5.7 mmol/L glucose, pH 7.4) (Table 2). AngII-induced contraction of isolated aorta increased by about 24% in AT2-TG mice in the presence of an AT2 receptor inhibitor (PD123319, 1-[[4-(dimethylamino)-3-methylphenyl]methyl]-5-(diphenylacetyl)-4,5,6,7-tetrahydro-1H-imidazo[4,5-c]pyridine-6-carboxylic acid ditrifluoroacetate monohydrate available from PARKE-DAVIS, Ann Arbor, Michigan) as compared with the contraction in its absence."}, "[2]": {"assay": "Blood pressure change after continuous administration of angiotensin II (tail-cuff method)", "format": "in vivo, mice", "conditions": "for Average blood pressure under administration of angiotensin II: AngII 0.7 mg/day/kg via osmotic pump, mean ± SE", "protocol": "Change of average awaking blood pressure induced by chronic administration of angiotensin II (AngII) was compared between transgenic and wild-type mice. AngII (0.7 mg/day/kg) was chronically administered via an osmotic pump embedded in the back of each mouse, and the blood pressure of the mouse was measured at the tail by the tail-cuff method (Table 1). […]"}, "[3]": {"conditions": "AT2-TG mice, in the presence of AngII + CV11974 (AT2 receptor stimulation)"}, "[4]": {"conditions": "wild-type mice, in the presence of AngII + CV11974 (AT2 receptor stimulation)"}},
  "data": [
    {"compound": "CCOc1nc2cccc(C(=O)O)c2n1Cc1ccc(-c2ccccc2-c2nnn[nH]2)cc1", "note": "(racemic) [CV11974]", "values": [
      {"measurement": "increase of kininogenase activity in isolated aorta", "setting": "kininogenase; [3]", "value": 150, "unit": "%"},
      {"measurement": "change of kininogenase activity in isolated aorta", "setting": "kininogenase; [4]", "value": "did not change"},
      {"measurement": "increase of amount of cGMP produced in isolated aorta", "setting": "[1]; [3]", "value": 105, "unit": "%"},
      {"measurement": "change of amount of cGMP produced in isolated aorta", "setting": "[1]; [4]", "value": "did not change"}
    ]},
    {"compound": "COC(=O)[C@@H](N)CCCNC(=N)N[N+](=O)[O-]", "note": "[L-NAME]", "values": [
      {"measurement": "inhibition of the increase of kininogenase activity", "setting": "kininogenase; AT2-TG mice", "value": "completely inhibited"},
      {"measurement": "inhibition of the increase of cGMP production", "setting": "[1]; AT2-TG mice", "value": "completely inhibited"}
    ]},
    {"compound": "Cc1cc(Cn2cnc3c2CC(C(=O)O)N(C(=O)C(c2ccccc2)c2ccccc2)C3)ccc1N(C)C.O.O=C(O)C(F)(F)F.O=C(O)C(F)(F)F", "note": "(stereo not shown) [PD123319, 1-[[4-(dimethylamino)-3-methylphenyl]methyl]-5-(diphenylacetyl)-4,5,6,7-tetrahydro-1H-imidazo[4,5-c]pyridine-6-carboxylic acid ditrifluoroacetate monohydrate]", "values": [
      {"measurement": "increase of AngII-induced contraction of isolated aorta", "setting": "isolated aorta; AT2-TG mice, in the presence of PD123319 compared with its absence", "value": "about 24%"},
      {"measurement": "Angiotensin II-induced vasoconstriction", "setting": "isolated aorta; AT2-TG mice, with PD123319, relative to its absence", "value": "124±2.1 % of control"},
      {"measurement": "Angiotensin II-induced vasoconstriction", "setting": "isolated aorta; Wild-type mice, with PD123319, relative to its absence", "value": "98±1.1 % of control"},
      {"measurement": "change of AngII-induced contraction", "setting": "isolated aorta; wild-type mice, in the presence of PD123319", "value": "no contraction change"}
    ]},
    {"compound": "Angiotensin II [AngII, vasopressor whose action is mediated through receptor subtypes AT1 and AT2]", "values": [
      {"measurement": "Angiotensin II-induced vasoconstriction", "setting": "isolated aorta; AT2-TG mice, without or with PD123319", "value": "100±0.2 % of control"},
      {"measurement": "Angiotensin II-induced vasoconstriction", "setting": "isolated aorta; Wild-type mice, without or with PD123319", "value": "100±0.7 % of control"},
      {"measurement": "Angiotensin II-induced kininogenase activity in isolated aorta", "setting": "kininogenase; AT2-TG mice", "value": "0.76±0.07", "unit": "ng kinin/mg/h"},
      {"measurement": "Angiotensin II-induced kininogenase activity in isolated aorta", "setting": "kininogenase; Wild-type mice", "value": "0.68±0.11", "unit": "ng kinin/mg/h"},
      {"measurement": "Average blood pressure under administration of angiotensin II", "setting": "[2]; AT2-TG mice, Day 0", "value": "85±1.8", "unit": "mmHg"},
      {"measurement": "Average blood pressure under administration of angiotensin II", "setting": "[2]; AT2-TG mice, Day 4", "value": "84±2.7", "unit": "mmHg"},
      {"measurement": "Average blood pressure under administration of angiotensin II", "setting": "[2]; AT2-TG mice, Day 7", "value": "87±2.1", "unit": "mmHg"},
      {"measurement": "Average blood pressure under administration of angiotensin II", "setting": "[2]; AT2-TG mice, Day 14", "value": "89±2.6", "unit": "mmHg"},
      {"measurement": "blood pressure change", "setting": "[2]; AT2-TG mice, after 2 weeks, AngII 0.7 mg/day/kg", "value": "no blood pressure change"},
      {"measurement": "Average blood pressure under administration of angiotensin II", "setting": "[2]; Wild-type mice, Day 0", "value": "83±2.7", "unit": "mmHg"},
      {"measurement": "Average blood pressure under administration of angiotensin II", "setting": "[2]; Wild-type mice, Day 4", "value": "94±2.1", "unit": "mmHg"},
      {"measurement": "Average blood pressure under administration of angiotensin II", "setting": "[2]; Wild-type mice, Day 7", "value": "114±2.8", "unit": "mmHg"},
      {"measurement": "Average blood pressure under administration of angiotensin II", "setting": "[2]; Wild-type mice, Day 14", "value": "121±3.2", "unit": "mmHg"},
      {"measurement": "increase in average blood pressure", "setting": "[2]; wild-type mice, after 2 weeks, AngII 0.7 mg/day/kg", "value": 38, "unit": "mmHg"},
      {"measurement": "Angiotensin II-induced cGMP production in isolated aorta", "setting": "[1]; AT2-TG mice", "value": "330±41", "unit": "fmol/gwt"},
      {"measurement": "Angiotensin II-induced cGMP production in isolated aorta", "setting": "[1]; Wild-type mice", "value": "328±14", "unit": "fmol/gwt"}
    ]},
    {"compound": "icatibant", "values": [
      {"measurement": "inhibition of the increase of kininogenase activity", "setting": "kininogenase; AT2-TG mice", "value": "completely inhibited"},
      {"measurement": "inhibition of the increase of cGMP production", "setting": "[1]; AT2-TG mice", "value": "completely inhibited"}
    ]}
  ]
}
